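Exposure lasted 48 hours, with cells grown in 96-well plates and compounds tested at five concentrations. GI50: concentration for 50% inhibition of growth.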 The source made the active and inactive calls. Cut-off read from the data, not from the text of the source: active = GI50 up to about 1.1 µM and inactive = higher.
Tests used:
Assay in all cases: NCI anticancer screen, dose series, 48 h
SF-268 = test system: SF-268
M14 = test system: M14
HT-29 = test system: HT-29
EKVX = test system: EKVX
MDA-MB-231 = test system: MDA-MB-231
SF-295 = test system: SF-295
SK-MEL-28 = test system: SK-MEL-28
A498 = test system: A498
UO-31 = test system: UO-31
HOP-92 = test system: HOP-92
Hs-578T = test system: Hs-578T
COLO 205 = test system: COLO 205
K562 = test system: K562
MDA-N = test system: MDA-N
U-251 = test system: U-251
T47D = test system: T47D
786-0 = test system: 786-0
UACC-62 = test system: UACC-62
RPMI-8226 = test system: RPMI-8226
OVCAR-5 = test system: OVCAR-5
MCF7 = test system: MCF7
SF-539 = test system: SF-539
HCT-15 = test system: HCT-15
SR = test system: SR
NCI-H226 = test system: NCI-H226
NCI-H23 = test system: NCI-H23
IGROV-1 = test system: IGROV-1
CAKI-1 = test system: CAKI-1
TK-10 = test system: TK-10
NCI/ADR-RES = test system: NCI/ADR-RES
HL-60 = test system: HL-60
SNB-19 = test system: SNB-19
PC-3 = test system: PC-3
SK-OV-3 = test system: SK-OV-3
UACC-257 = test system: UACC-257
NCI-H522 = test system: NCI-H522
KM12 = test system: KM12
HCC 2998 = test system: HCC 2998
NCI-H460 = test system: NCI-H460
SW-620 = test system: SW-620
RXF 393 = test system: RXF 393
SK-MEL-5 = test system: SK-MEL-5
DU-145 = test system: DU-145
MDA-MB-435 = test system: MDA-MB-435
OVCAR-3 = test system: OVCAR-3
LOX IMVI = test system: LOX IMVI
CCRF-CEM = test system: CCRF-CEM
HCT-116 = test system: HCT-116
HOP-62 = test system: HOP-62
OVCAR-4 = test system: OVCAR-4
SN12C = test system: SN12C
A549 = test system: A549
OVCAR-8 = test system: OVCAR-8
ACHN = test system: ACHN
SNB-75 = test system: SNB-75
SK-MEL-2 = test system: SK-MEL-2
Malme-3M = test system: Malme-3M
MOLT-4 = test system: MOLT-4

Measured: GI50

CCOP(=O)(OCC)c1cc2cc(O)ccc2oc1=O
inactive: SF-268 > 100 µM | M14 > 100 µM | HT-29 > 100 µM | EKVX > 100 µM | MDA-MB-231 > 100 µM | SF-295 > 100 µM | SK-MEL-28 > 100 µM | A498 > 100 µM | HOP-92 > 100 µM | Hs-578T > 100 µM | COLO 205 > 100 µM | K562 > 100 µM | MDA-N > 100 µM | U-251 > 100 µM | T47D > 100 µM | 786-0 > 100 µM | UACC-62 > 100 µM | RPMI-8226 > 100 µM | OVCAR-5 > 100 µM | MCF7 > 100 µM | SF-539 > 100 µM | SR > 100 µM | NCI-H226 > 100 µM | NCI-H23 > 100 µM | IGROV-1 > 100 µM | CAKI-1 > 100 µM | TK-10 > 100 µM | NCI/ADR-RES > 100 µM | HL-60 > 100 µM | SNB-19 > 100 µM | PC-3 > 100 µM | SK-OV-3 > 100 µM | UACC-257 > 100 µM | NCI-H522 > 100 µM | KM12 > 100 µM | HCC 2998 > 100 µM | NCI-H460 > 100 µM | SW-620 > 100 µM | RXF 393 > 100 µM | SK-MEL-5 > 100 µM | DU-145 > 100 µM | MDA-MB-435 > 100 µM | OVCAR-3 > 100 µM | LOX IMVI > 100 µM | CCRF-CEM > 100 µM | HCT-116 > 100 µM | HOP-62 > 100 µM | OVCAR-4 > 100 µM | SN12C > 100 µM | A549 > 100 µM | OVCAR-8 > 100 µM | ACHN > 100 µM | SNB-75 > 100 µM
> 100 µM: HCT-15
active: UO-31 0.0112 µM

CCC1=C(c2ccc(OC)cc2)CC[C@@]2(CCNC2=O)[C@@H]1C
inactive: SF-268 > 100 µM | M14 > 100 µM | HT-29 > 67.6 µM | EKVX 59.4 µM | MDA-MB-231 > 100 µM | SF-295 > 55.2 µM | SK-MEL-28 > 100 µM | A498 > 100 µM | UO-31 > 96.2 µM | HOP-92 > 100 µM | Hs-578T > 52.2 µM | COLO 205 > 63.4 µM | K562 26.5 µM | MDA-N > 93.1 µM | U-251 > 100 µM | T47D > 50.7 µM | 786-0 > 100 µM | UACC-62 > 100 µM | RPMI-8226 > 46.1 µM | OVCAR-5 > 100 µM | MCF7 70.8 µM | SF-539 > 100 µM | SR 24.7 µM | NCI-H226 > 100 µM | NCI-H23 > 43.2 µM | IGROV-1 > 100 µM | CAKI-1 > 100 µM | TK-10 > 100 µM | NCI/ADR-RES > 74.1 µM | SK-MEL-2 > 90.8 µM | SNB-19 > 100 µM | Malme-3M 58.7 µM | PC-3 > 78.2 µM | SK-OV-3 > 100 µM | UACC-257 28.2 µM | NCI-H522 32.4 µM | MOLT-4 24.9 µM | KM12 > 94.2 µM | HCC 2998 > 100 µM | NCI-H460 > 100 µM | SW-620 > 100 µM | SK-MEL-5 22.1 µM | DU-145 > 100 µM | MDA-MB-435 > 61.4 µM | OVCAR-3 > 100 µM | LOX IMVI > 75 µM | CCRF-CEM 57.7 µM | HCT-116 76.2 µM | HOP-62 > 100 µM | OVCAR-4 > 100 µM | SN12C > 100 µM | A549 > 100 µM | OVCAR-8 > 100 µM | ACHN > 89.7 µM | SNB-75 > 73.8 µM
> 100 µM: HCT-15

Source: ChEMBL document CHEMBL1201862, “PubChem BioAssay data set” (2004)
